As a reminder, the IC50 is the concentration at which inhibition is half-maximal. Lower therefore signals greater potency.

Values after ≈ are worked out from the molar mass of the structure shown.

IC50 data for 1 compound are collected here from patent US20160015670A1, “COMPOUND, 1-PALMITIN-2-LINOLEIN-3-OLEIN, AND PHARMACEUTICAL PREPARATION AND USE THEREOF” (priority 2014, published 2016).

Test in all cases: MTT method in vitro, inhibition of cell growth
Common to all, as to type: cell-based
For orientation: Formazan colour is commonly taken as a measure of viable cells.

Assay [1] has as its system BGC-823 (human gastric cancer cells). The conditions noted are these: BGC-823, MTT, 48 h. From the text:
(§1) (1) Cell lines: PANC-1 (human pancreatic cancer cells), SKOV3 (human ovarian cancer cells), MCF-7 (human breast cancer cells), SMMC-7721 (human liver cancer cells), A549 (human lung cancer cells), BGC-823 (human gastric cancer cells), COLO205 (human colonic cancer cells), storaged and passaged maintainably in Research and Evaluation Center for Pharmacology, Shanghai Institute of Pharmaceutical Industry;
(§2) The inhibition effects of the compound of formula (I) on the above-mentioned cell lines were detected by using MTT method. The specific procedures were as follows:
(§3) (1) Cell culture: (a) Storaged cells were taken out from the liquid nitrogen, thawed quickly in a 37 water bath, then aseptically transferred into 6 ml of cellular medium in a 10 ml centrifugal tube, centrifuged at 1000 rpm for 5 min. The supernatant was discarded, then the precipitated cells were re-suspended in 5-6 ml cellular media by pipetting and transferred into a flask in a 37 incubator for cell culture; (b) Next day, the flask was taken out from the incubator and the used medium was discarded, then the cells were incubated in 5-6 ml fresh medium in the 37 incubator; (c) On the third day, the flask was taken out from the incubator and the used medium was discarded, then 2-3 ml of PBS (pH7.4) was added into the flask with rocking for cleaning it and the used PBS was discarded. Such a cellular cleaning step was repeated once again. 3-5 drops of 0.25% trypsin solution were added into the flask with sloshing, thus well-distributed in it. The flask was capped and placed in a 37 incubator for about 3 min, and the separation of cells from the flask wall was observed under the microscope. 2 ml of cellular medium was added and cells were separated completely from the flask wall by pipetting, then the cell suspension was transferred into 2 separate clean flasks, each containing 5-6 ml medium. The cell suspension was well-distributed by pipetting, then the flask was placed in a 37 incubator. (d) Step (c) was repeated every other day. […]
(§4) (4) Cells in a logarithmic growth stage were trypsinized and washed, then re-suspended in the medium containing 10% calf serum. The number of living cells was counted in Trypan blue dye exclusion method and cell suspensions were adjusted into a density of 2×10^5 cell/ml. […]
(§5) (7) 100 μl of crystal dissolving solution was added into each well and cells were incubated continuously in the incubator overnight, so as to dissolve the resulted formazan crystals sufficiently. Then, the absorbance value was measured at 570 nm for each well.
(§6) (8) Based on absorbance values, inhibition rates on the cell growth were calculated for sample groups of various concentrations. […]
(§7) (1−mean absorbance of experimental wells/mean absorbance of control wells)×100%

Assay [2] has as its system COLO205 (human colonic cancer cells). Particulars: COLO 205, 48 h.
Excerpt: as §1, §2, §3, §4, §5, §6, §7

Assay [3] deals with PANC-1 (human pancreatic cancer cells). Particulars: PANC-1, MTT, 48 h.
Excerpt: as §1, §2, §3, §4, §5, §6, §7

Assay [4] concerns SMMC-7721 (human liver cancer cells). The conditions noted are these: SMMC-7721, MTT, 48 h.
Excerpt: as §1, §2, §3, §4, §5, §6, §7

On to `CC(=O)O[C@H]1C(=O)[C@@]2(C)[C@H]([C@H](OC(=O)c3ccccc3)[C@]3(O)C[C@H](OC(=O)[C@H](O)[C@@H](NC(=O)c4ccccc4)c4ccccc4)C(C)=C1C3(C)C)[C@]1(OC(C)=O)CO[C@@H]1C[C@@H]2O` [Taxol, reference compound], for which the 50% inhibitory concentration (IC50) stood at 0.24 µg/mL (≈ 0.281 µM) in assay [1], 0.75 µg/mL (≈ 0.878 µM) in assay [2], 0.44 µg/mL (≈ 0.515 µM) in assay [3] and 0.12 µg/mL (≈ 0.141 µM) in assay [4].
